In article PMC6193035, “Novel small molecules affecting cell membrane as potential therapeutics for avian pathogenic Escherichia coli” (Scientific Reports, 2018):
≈ marks a conversion by molar mass, not a printed value. Read-outs that look alike come from different tables or passages of the source. Marks after values point to notes of the source that are not given here.

Assays:
Type in all cases: cell-based, Escherichia coli
APEC O78 [1] = test: Crystal violet (CV) uptake assay; settings: 2X MBC, 30 mins; P < 0.05, Student's t-test
Protocol: (§1) Membrane permeability assays (crystal violet (CV) uptake and loss of 260/280 nm absorbing materials) were conducted as described previously. […] CV uptake was measured using the formula: (OD DMSO − OD SM/OD DMSO × 100). Two independent experiments in duplicates were conducted.

APEC O78 [2] = test: Loss of 260/280 nm absorbing materials assay; settings: 2X MBC, 1 h
Protocol: as §1

APEC O78 [3] = test: Primary screening, growth inhibition of APEC O78; settings: separate experiment, DMSO 1% to 32%, M63 media, 12 h
Protocol: To identify the APEC growth inhibitors, SM library was screened against APEC O78 which is one of the most frequently isolated APEC serotypes from avian colibacillosis cases. One microlitre SMs (final concentration of 100 µM) were added using a slotted pin tool (V and P Scientific, San Diego, CA, USA) to the wells of the 96-well plate containing 100 µL of overnight grown 0.05 OD600 (7 × 10^7 CFU/mL) adjusted APEC culture. Controls (four replicates/plate) containing 1 µL of 100% DMSO (final concentration of 1%), 1 µL chloramphenicol (CHL, #C0378 Sigma-Aldrich) (20 µg/mL), 1 µL kanamycin (KAN, #60615 Sigma-Aldrich) (50 µg/mL), and 100 µL of M63 media were included. To determine the effect of DMSO on APEC growth, antimicrobial activity of DMSO was determined at different concentrations (1% to 32%) in a separate experiment. Plate was then incubated at 37 °C for 12 h in Sunrise - Absorbance microplate reader (Tecan Group Ltd. San Jose, CA) with kinetic OD600 measurement every 30 mins. The quality of screening was assessed by calculating the Z′-score as described previously. The growth inhibition of APEC was calculated by using the formula as previously described[13],[14]. The SMs inhibiting at least 80% of the APEC growth were selected as primary hits. […]

APEC O1-63 = test: Antimicrobial susceptibility, CAMHB micro-dilution (CLSI); settings: APEC O1-63, CAMHB, (R) = resistant
Source text: (§2) Initially, antimicrobial susceptibility profile was established for all the tested APEC serotypes using cation-adjusted Muller-Hinton broth (CAMHB) micro-dilution method according to clinical and laboratory standards institute (CLSI) guidelines.

APEC O109 = test: as above; settings: (R) = resistant
Source text: as §2

APEC O115 = test: as above; settings: (R) = resistant
Source text: as §2

APEC O15 = test: as above; settings: (R) = resistant
Source text: as §2

APEC O18 = test: as above; settings: (R) = resistant
Source text: as §2

APEC O1 = test: as above; settings: (R) = resistant
Source text: as §2

APEC O2-211 = test: as above; settings: APEC O2-211, CAMHB, (R) = resistant
Source text: as §2

APEC O2 = test: as above; settings: (R) = resistant
Source text: as §2

APEC O35 = test: as above; settings: (R) = resistant
Source text: as §2

APEC O78-53 = test: as above; settings: APEC O78-53, CAMHB, (R) = resistant
Source text: as §2

APEC O78 [4] = test: as above; settings: (R) = resistant
Source text: as §2

APEC O8 = test: as above; settings: (R) = resistant
Source text: as §2

E. coli ATCC 25922 = test: Antimicrobial susceptibility, quality control strain (CLSI); settings: E. coli ATCC 25922 quality control strain, CAMHB
Source text: as §2

[5] = Escherichia coli, read-out: MIC
[6] = Escherichia coli, ATCC25922, read-out: MIC

Compound	MIC (APEC O1-63; [5])	MIC (APEC O109; [5])	MIC (APEC O115; [5])	MIC (APEC O15; [5])	MIC (APEC O18; [5])	MIC (APEC O1; [5])	MIC (APEC O2-211; [5])	MIC (APEC O2; [5])	MIC (APEC O35; [5])	MIC (APEC O78-53; [5])	MIC (APEC O78 [4]; [5])	MIC (APEC O8; [5])	MIC (E. coli ATCC 25922; [6])	further results
O=C(O)CN(CCN(CC(=O)O)CC(=O)O)CC(=O)O [EDTA, ethylenediaminetetraacteic acid, reference compound]														uptake of crystal violet compared with DMSO (APEC O78 [1]): increased the uptake of crystal violet; 260 nm absorbing materials in supernatant compared with DMSO (APEC O78 [2]): significantly (P < 0.05, Student’s t-test) increased; Absorbance 280 nm of treated supernatant (APEC O78 [2]; DMSO 2.58, superscript a P < 0.05 vs DMSO): 2.60; Absorbance 260 nm of treated supernatant (APEC O78 [2]; DMSO 3.77, superscript a P < 0.05 vs DMSO): 4.00^a
C[S+](C)[O-] [DMSO, dimethyl sulfoxide]														DMSO concentration inhibitory to APEC (APEC O78 [3]): ≥ 8%
CC1(C)S[C@@H]2[C@H](NC(=O)[C@H](N)c3ccccc3)C(=O)N2[C@H]1C(=O)O [Ampicillin, ampicillin]	4 µg/mL (≈ 11.4 µM)	> 64 µg/mL	> 64 µg/mL	2 µg/mL (≈ 5.72 µM)	4 µg/mL (≈ 11.4 µM)	> 64 µg/mL	4 µg/mL (≈ 11.4 µM)	> 64 µg/mL	2 µg/mL (≈ 5.72 µM)	4 µg/mL (≈ 11.4 µM)	> 64 µg/mL	4 µg/mL (≈ 11.4 µM)	8 µg/mL (≈ 22.9 µM)	
colistin														MIC (APEC O1-63): 4 µg/mL; MIC (APEC O109): 0.5 µg/mL; MIC (APEC O115): 1 µg/mL; MIC (APEC O15): 1 µg/mL; MIC (APEC O18): 1 µg/mL; MIC (APEC O1): 0.5 µg/mL; MIC (APEC O2-211): 4 µg/mL; MIC (APEC O2): 0.5 µg/mL; MIC (APEC O35): 1 µg/mL; MIC (APEC O78-53): 0.5 µg/mL; MIC (APEC O78 [4]): 0.25 µg/mL; MIC (APEC O8): 1 µg/mL; MIC (E. coli ATCC 25922): 1 µg/mL
CN(C)[C@@H]1C(O)=C(C(N)=O)C(=O)[C@@]2(O)C(O)=C3C(=O)c4c(O)cccc4[C@@](C)(O)[C@H]3C[C@@H]12 [Tetracycline, tetracycline]	16 µg/mL (≈ 36 µM)	1 µg/mL (≈ 2.25 µM)	> 64 µg/mL	> 64 µg/mL	2 µg/mL (≈ 4.5 µM)	> 64 µg/mL	> 64 µg/mL	> 64 µg/mL	1 µg/mL (≈ 2.25 µM)	> 64 µg/mL	32 µg/mL (≈ 72 µM)	> 64 µg/mL	0.5 µg/mL (≈ 1.13 µM)	
